Test results: patent US20130296347A1, “Compositions and Methods for Prophylaxis and Treatment of Addictions” (Omeros Corporation, priority 2007, published 2013)
“And” between values parts separate entries of the source, which are not always exact repeats. Equal entries are not always repeated. “Also recorded” adds a separate entry of the source.

Tests used:
msP rats [1] = assay: Acute voluntary ethanol intake, free choice 10% alcohol 24 hours a day; type: in vivo, rat; conditions: for ethanol intake, drug alone (post-hoc): low dose given at 12 hours and 1 hour before access, partner drugs at doses of the examples; for ethanol intake in a pilot study: low dose: fluoxetine 3.0, mirtazapine 5.0, topiramate 30.0, levetiracetam 100.0, gabapentin 60.0 mg/kg OS, ondansetron 1.0, antalarmin […] IP
Method: MsP rats were first trained to drink 10% (w/v) alcohol for 24 hours a day (free choice between water and ethanol). […] Before starting the treatment, rats were trained to gavage administration procedures for three days, during which they received vehicle (distilled water). […] Drinking experiments started at the beginning of the dark cycle. Alcohol, water and food intakes were monitored at 2, 8 and 24 hours after ethanol was made available.
Before starting the treatment, rats were trained to gavage and IP administration procedures for three days. Experiment was conducted in a between subject design (n=22). […] Drinking experiments started at the beginning of the dark cycle. Alcohol, water and food intakes were monitored at 2, 8 and 24 hours after ethanol was made available.
The drinking experiments were conducted at the beginning of the dark cycle, and alcohol, water and food intakes were monitored at 2, 8 and 24 hours after ethanol was made available.
(§1) MsP rats were first trained to drink 10% (w/v) alcohol for 24 hours a day (free choice between water and ethanol). […] Rats treated with drug vehicles served as a control. Before starting the treatment, rats were trained to gavage administration for three days, during which they received drugs vehicle (distilled water). […] Drinking experiments started at the beginning of the dark cycle. Alcohol, water, and food intakes were monitored at 2, 8 and 24 hours after ethanol was made available.
as §1, with “water” for “water,”
as §1, with “water” for “water,”
as §1, with “water” for “water,”
as §1, with “water” for “water,”
as §1, with “water” for “water,”

heavy tobacco smokers [2] = assay: Pilot clinical study in heavy tobacco smokers; type: in vivo, human
heavy tobacco smokers [3] = assay: Pilot clinical study in heavy tobacco smokers; type: in vivo, human; parameters: overall smoking reduction / inhibition of smoking prior to dropping out: concentration or dose not given beside the values; conditions: for Percent inhibition of smoking: baseline data expressed as 100%: T = 0, smoking before entering the treatment; for Percent inhibition of smoking: baseline data expressed as 100% / Percent inhibition of smoking: individual patients; for craving score (visual analogic craving scale): over treatment
Method: Data were recorded for two months, during which patients were seen by the physician every other week. Patients were instructed to record in a personal logbook the number of cigarettes per day and the time of the day smoking occurred. At the end of the study, the logbooks were returned to the clinical personnel who analyzed the data. […] During the first month of treatment, every two weeks, ACTH and cortisol levels were also monitored to evaluate HPA activation before and during treatment.

CD mice [4] = conditions: morphine 30 mg/kg IP twice a day
Method: Morphine hydrochloride was purchased from Salars (Milano, Italy). Morphine (30 mg/kg) was dissolved in NaCl 9% and was injected intraperitoneally (IP) twice a day at the indicated doses in a volume of 0.2 ml per mice.

CD mice [5] = assay: Tail-flick test, morphine-induced analgesic tolerance; type: in vivo, mouse; conditions: morphine 30 mg/kg IP twice a day
Method: All procedures were conducted in adherence to the European Community Council Directive for Care and Use of Laboratory Animals.
Mice were divided into 6 groups. Group 1 (n=8) received drug vehicles (veh/veh). […] Animals were treated twice daily (between 9:00 and 10:00 a.m. and 9:00 and 10:00 p.m.).
Morphine hydrochloride was purchased from Salars (Milano, Italy). Morphine (30 mg/kg) was dissolved in NaCl […] and was injected intraperitoneally (IP) twice a day at the indicated doses in a volume of 0.2 ml per mice. […] It was dissolved in distilled water and was administered per o.s. at the doses of 10 mg/kg and 30 mg/kg in a volume of 0.6 ml per mice.
Two different tests were used to monitor analgesic responses. The tail-flick test was performed 45 min after the morning injection of morphine, and the tail-immersion test was performed 45 min after the evening injection of morphine.
For the tail-flick test, each mouse was gently restrained in a soft tissue pocket, and the tail (1 cm from the tip) was exposed to a hot light beam. Latency for tail-flick was measured with a 6 seconds cut-off time. For the tail-immersion test, each mouse was restrained in a soft tissue pocket, and the distal half of the tail dipped into a water bath set at 52 C°. Latency for removing the tail from the hot water was measured with a 10 seconds cut-off time.

[6] = system: Marchigian Sardinian alcohol-preferring (msP) rats; assay: Acute voluntary ethanol intake, alcohol access restricted to 2 hours/day; type: in vivo, rat
Method: (§2) At the beginning of the experiments, msP rats were allowed free choice between water and 10% (v/v) alcohol 24 h/day for at least 15 days. The fluids were offered in graduated drinking tubes equipped with metallic drinking spouts. The position (to the right or left) of alcohol and water drinking tubes was changed daily to avoid the development of side preference. Water and food were available ad libitum, while alcohol access was either restricted to 2 hours/day (Examples 1 and 2) or was available 24 hours/day (Examples 3 and 4). Alcohol, water and food intakes were measured.
. After acquisition of a stable baseline of ethanol intake (6-8 g/kg bw; daily), alcohol access was restricted to 2 hours a day at the beginning of the dark phase. Water and food were freely available.
(§3) […]. Before starting the treatment, rats were trained to gavage administration procedures for three days, during which they received vehicle (distilled water).
Treatments were carried out at intervals of at least three days. […] Drinking experiments were conducted right at the beginning of the dark cycle. Alcohol, water and food intakes were monitored at 30, 60, 90 and 120 minutes after ethanol was made available.
The msP rats (n=8) were prepared for the study as described in Example 1. After acquisition of a stable baseline of ethanol intake, alcohol access was restricted to 2 hours a day at the beginning of the dark phase. Water and food were freely available. […]. The experiment was conducted using a within subject counterbalanced Latine square design where each animal received all drug doses.
These experiments were conducted at the beginning of the dark cycle and alcohol, and water and food intakes were monitored at 30, 60, 90 and 120 minutes after ethanol was made available.

[7] = system: Marchigian Sardinian alcohol-preferring (msP) rats; assay: Subchronic (7 days) voluntary ethanol intake, 10% alcohol available 24 hours/day; type: in vivo, rat; conditions: 7 days; naltrexone […] IP alone or with pioglitazone 10.0 or 30.0 mg/kg OS
Method: as §2, §3
Alcohol, water and food intakes were monitored at 2, 8 and 24 hours. Fluids and food intakes were monitored for three additional days after the end of the drug treatment period.
[…]. According to a between-subject design, four groups of msP rats (N=9/group) were prepared as described in Example 3. […] […]. Alcohol, water and food intakes were monitored at 2, 8 and 24 hours. Fluids and food intakes were monitored for three additional days after the end of the drug treatment period.

msP rats [8] = assay: Yohimbine-induced (stress) reinstatement of alcohol seeking; conditions: naltrexone 0.25 and 1.0 mg/kg IP 1 hour before test
Excerpt: Stress-induced reinstatement of alcohol-seeking experimental procedures consisted of three phases: (1) training phase; (2) extinction phase; and (3) reinstatement phase, as described below.
For the training phase, after completion of the fading procedure, msP rats were trained to self-administer 10% (v/v) alcohol for 15 days in 30-min daily sessions under a FR1 schedule of reinforcement. During the infusion, a stimulus house light was turned on for 5 s (time out; TO).
For the extinction phase, after the last alcohol self-administration session, animals were subjected to 30-min extinction sessions for 15 consecutive days.
The day after the last extinction session, rats were subjected to the reinstatement test.
Animals received all drug treatments according to a counterbalance Latin square design. A 3-day interval, during which animals were subjected to extinction sessions, was allowed between drug tests.

alcoholic patients = assay: Observational study of alcohol abuse in human patients; type: in vivo
Excerpt: ACT)+psychotherapy. […] Patients were instructed to record in a personal logbook the number of drinks per day and the time of the day drinks occurred. At the end of the study, the logbooks were returned to the clinical personnel who analyzed the data. […] In addition, biochemical parameters to ascertain alcohol detoxification and to measure recovery of physiological functions (i.e., hepatic function) were monitored monthly. Hematological parameters measured included: mean corpuscular volume (MCV); gamma-GT; aspartate aminotransferase (AST); alanine aminotransferase (ALT); and carbohydrate-deficient transferring (CDT). MCV and CDT are biomarkers for ethanol consumption, and GGT, ALT and AST are biomarkers for hepatic functionality. Data were analyzed by analysis of variance followed by Newman-Keuls post hoc tests when appropriate.

msP rats [9] = assay: Cue-induced reinstatement of alcohol seeking; type: in vivo, rat; conditions: naltrexone 0.25 and 1.0 mg/kg 1 hour before test
Method: Cue-induced reinstatement of alcohol-seeking behaviour experimental procedures consisted of three phases: (1) conditioning phase; (2) extinction phase; and (3) reinstatement phase, as described below.
For the conditioning phase, at the completion of the fading procedure (see above), in 30 min daily sessions, animals were trained to discriminate between 10% alcohol and water. Beginning with self-administration training at the 10% alcohol concentration, discriminative stimuli (SD) predictive of alcohol versus water availability were presented during the alcohol and water self-administration sessions, respectively. The discriminative stimulus for alcohol consisted of the odour of an orange extract (S^+) whereas water availability (i.e. no reward) was signalled by an anise extract (S^−). The olfactory stimuli were generated by depositing six to eight drops of the respective extract into the bedding of the operant chamber. In addition, each lever-press resulting in delivery of alcohol was paired with illumination of the chamber's house light for 5 sec (CS^+). The corresponding cue during water sessions was a 5 second tone (70 dB) (CS). Concurrently with the presentation of these stimuli, a 5 sec. time-out period was in effect, during which responses were recorded but not reinforced. The olfactory stimuli serving as S^+ or S^− for alcohol availability were introduced one minute before extension of the levers and remained present throughout the 30-min. sessions. The bedding of the chamber was changed and bedding trays were cleaned between sessions. During the first three days of the conditioning phase, the rats were given alcohol sessions only. Subsequently, alcohol and water sessions were conducted in random order across training days, with the constraint that all rats received a total of 10 alcohol and 10 water sessions.
For the extinction phase, after the last conditioning day, rats were subjected to 30-min extinction sessions for 15 consecutive days. During this phase, sessions began by extension of the levers without presentation of the SD. […]

Long Evans rats = assay: Yohimbine-induced reinstatement of nicotine seeking; type: in vivo, rat; conditions: yohimbine 2.0 mg/kg/ml; p<0.001
Method: Stress and anxiety are major factors in resuming nicotine use in former abstinent users. […] Reinstatement experiments and relative drug treatments were performed every third day. Between reinstatements, extinction baseline was re-established.

[10] = pioglitazone 30 mg/day or naltrexone 50 mg/day + psychotherapy

## O=C(Nc1ccccc1)c1cc([N+](=O)[O-])ccc1Cl [GW9662]
msP rats [1]; GW9662 5 μg/rat ICV alone
  ethanol intake: did not significantly affect
msP rats [1]; GW9662 1.0 and 5.0 mg/kg IP with pioglitazone 30 mg/kg OS
  pioglitazone-induced reduction of ethanol intake: blocked the effect of pioglitazone in a dose related manner
msP rats [1]; GW9662 alone, 1.0 and 5.0 mg/kg IP
  ethanol drinking: did not modify

## CCCCN(CC)c1nc(C)nc2c1c(C)c(C)n2-c1c(C)cc(C)cc1C [antalarmin]
msP rats [1]; pioglitazone 10 mg/kg OS
  ethanol intake, drug alone (post-hoc): did not significantly modify
msP rats [1]
  ethanol intake in a pilot study: modestly reduced

## CC(NC(C)(C)C)C(=O)c1cccc(Cl)c1 (centres unmarked) [bupropione]
Heavy tobacco smokers [2]; T = 10 weeks, individual patients, listed as Bup
  Percent inhibition of smoking: 40% and 45%
Heavy tobacco smokers [2]; two bupropione patients after 10 weeks of drug administration
  smoking reduced: about 40%
Heavy tobacco smokers [3]
  Percent inhibition of smoking: baseline data expressed as 100%: 100%
  craving score (visual analogic craving scale): less effective
Heavy tobacco smokers [3]; T = 2 weeks of treatment, Pio 15-30 mg/daily, Var 0.5 to 2.0 mg/day
  Percent inhibition of smoking: 100%
Heavy tobacco smokers [3]; T = 4 weeks, listed as Bup
  Percent inhibition of smoking: 20% and 18% and 15%
Heavy tobacco smokers [3]; T = 6 weeks, listed as Bup
  Percent inhibition of smoking: 28% and 20% and 21%
Heavy tobacco smokers [3]; T = 8 weeks
  Percent inhibition of smoking: 34%
Heavy tobacco smokers [3]; bupropione patient who dropped out after four weeks
  inhibition of smoking prior to dropping out: 20%

## CNCCC(Oc1ccc(C(F)(F)F)cc1)c1ccccc1 (centres unmarked) [fluoxetine]
msP rats [1]; pioglitazone 10 mg/kg OS
  ethanol intake, drug alone (post-hoc): did not significantly modify
msP rats [1]
  ethanol intake in a pilot study: did not reduce ethanol intake

## NCC1(CC(=O)O)CCCCC1 [gabapentin]
msP rats [1]; pioglitazone 10 mg/kg OS
  ethanol intake, drug alone (post-hoc): did not significantly modify
msP rats [1]
  ethanol intake in a pilot study: did not reduce ethanol intake

## CC[C@@H](C(N)=O)N1CCCC1=O [levetiracetam]
msP rats [1]; pioglitazone 10 mg/kg OS
  ethanol intake, drug alone (post-hoc): did not significantly modify
msP rats [1]
  ethanol intake in a pilot study: did not reduce ethanol intake

## CN1CCN2c3ncccc3Cc3ccccc3C2C1 (centres unmarked) [mirtazapine]
msP rats [1]; pioglitazone 10 mg/kg OS
  ethanol intake, drug alone (post-hoc): did not significantly modify
msP rats [1]
  ethanol intake in a pilot study: did not reduce ethanol intake

## CN1CC[C@]23c4c5ccc(O)c4O[C@H]2[C@@H](O)C=C[C@H]3[C@H]1C5 [morphine]
CD mice [4]
  tail-immersion analgesic effect on test day 9: marginally significant
CD mice [4]; p<0.01
  tail-immersion latency on day 1, 3, 5, and 7: significantly increased
CD mice [5]
  time to tail-flick on test days 7 and 9: non significant difference from controls
CD mice [5]; p<0.01
  time to tail-flick on day 1, 3 and 5: significantly increased

## O=C1CC[C@@]2(O)[C@H]3Cc4ccc(O)c5c4[C@@]2(CCN3CC2CC2)[C@H]1O5 [naltrexone]
[6]; naltrexone […] IP alone or with pioglitazone 10 mg/kg OS
  ethanol intake at 120 minutes: did not show significant effects
[6]; naltrexone […] IP alone or with pioglitazone 10.0 or 30.0 mg/kg OS
  ethanol intake at 30, 60, and 90 minutes: significantly reduced
[7]
  ethanol intake at 8 and 24 hours: not at 8 and 24 hours
  ethanol intake at 2 hours: significantly reduced
  voluntary ethanol intake, overall: significantly reduced
msP rats [8]
  yohimbine-induced reinstatement of alcohol seeking: did not significantly reduce; also recorded: not modified
Alcoholic patients; 2-month treatment
  hepatic parameters (GGT, ALT, AST): ameliorated
Alcoholic patients; T = 1.2
  Depression Scale M.A.D.R.S (mean score values): 18
Alcoholic patients; T = 1.3
  Depression Scale M.A.D.R.S (mean score values): 16
Alcoholic patients; T = 1.4
  Depression Scale M.A.D.R.S (mean score values): 17
Alcoholic patients; T = 2.1
  Depression Scale M.A.D.R.S (mean score values): 17
Alcoholic patients; T = 2.2
  Depression Scale M.A.D.R.S (mean score values): 15
Alcoholic patients; first two weeks of treatment, P<0.05
  effect on daily drinks, comparison of drugs: more effective than pioglitazone
Alcoholic patients; [10]
  daily ethanol intake (number of daily drinks): significantly reduced
  number of abstinence days: increased
Alcoholic patients; post hoc, P<0.001
  OCDS versus controls: statistically significant difference
  all five blood biomarkers versus controls (psychotherapy alone): statistical difference
msP rats [9]
  cue-induced (conditioned) reinstatement of alcohol-seeking: significantly reduced

## Cc1nccn1CC1CCc2c(c3ccccc3n2C)C1=O (centres unmarked) [ondansetron]
msP rats [1]; pioglitazone 10 mg/kg OS
  ethanol intake, drug alone (post-hoc): did not significantly modify
msP rats [1]
  ethanol intake in a pilot study: did not reduce ethanol intake

## CC1(C)O[C@@H]2[C@@H](CO[C@@]3(COS(N)(=O)=O)OC(C)(C)O[C@@H]23)O1 [topiramate]
msP rats [1]; pioglitazone 10 mg/kg OS
  ethanol intake, drug alone (post-hoc): did not significantly modify
msP rats [1]
  ethanol intake in a pilot study: did not reduce ethanol intake
msP rats [1]; pioglitazone 10 mg/kg OS, topiramate 30.0 mg/kg OS, p<0.05
  ethanol intake at 2 hours, drug alone: significant reduction

## c1cnc2cc3c(cc2n1)[C@@H]1CNC[C@H]3C1 [varenicline]
Heavy tobacco smokers [3]
  Percent inhibition of smoking: baseline data expressed as 100%: 100%
  craving score (visual analogic craving scale): highest reduction
Heavy tobacco smokers [3]; over treatment weeks
  STAI anxiety score: significantly reduced
Heavy tobacco smokers [3]; p<0.05
  weekly smoked cigarettes compared to bupropione (post hoc): significant difference
Heavy tobacco smokers [3]; pioglitazone 4 patients, varenicline 3 patients
  subjects reaching complete abstinence: one
Heavy tobacco smokers [3]; three participants receiving varenicline
  overall smoking reduction: 95%

## COC(=O)[C@@H]1[C@H]2C[C@H]3c4[nH]c5ccccc5c4CCN3C[C@@H]2CC[C@@H]1O [yohimbine]
Long Evans rats
  reinstatement of responding compared to extinction: significant reinstatement
